Experimental data: ChEMBL document CHEMBL1150939, “Symplostatin 1: A dolastatin 10 analogue from the marine cyanobacterium Symploca hydnoides” (J Nat Prod, 1998)
In brackets after ≈: the same amount, converted by molar mass.

Tests used:
[1] = system: A10; assay: Induction of microtubule loss in rat A10 cells at 1 ng/mL; format: functional
[2] = system: KB; assay: Cytotoxicity against human KB cells; format: functional, cell-based

Row | SMILES | Activity [1] [%] | IC50 [2] [ng/mL]
1 | CC[C@H](C)[C@@H]([C@@H](CC(=O)N1CCC[C@H]1[C@H](OC)[C@@H](C)C(=O)N[C@@H](Cc1ccccc1)c1nccs1)OC)N(C)C(=O)[C@@H](NC(=O)[C@H]([C@@H](C)CC)N(C)C)C(C)C [SYMPLOSTATIN 1] | 80 | 0.3 (≈ 0.375 nM)
2 | CC[C@H](C)[C@@H]([C@@H](CC(=O)N1CCC[C@H]1[C@H](OC)[C@@H](C)C(=O)N[C@@H](Cc1ccccc1)c1nccs1)OC)N(C)C(=O)[C@@H](NC(=O)[C@H](C(C)C)N(C)C)C(C)C [DOLASTATIN-10] | – | < 0.1
